Values joined by “and” are separate entries in the source; they are usually repeats but may differ in a detail not shown here. Identical values can stand only once. Like-named read-outs stand apart in the source and are kept apart here.
Tests used:
[1] = test system: Clostridium Perfringens (type A strain EHE-NE36) after Eimeria oocyst challenge; conditions: for Median Duodenal Lesion Score (0 absent to 4 severe) / Median Ilial Lesion Score (0 absent to 4 severe) / Median Jejunal Lesion Score (0 absent to 4 severe): 16 days
[2] = test system: Eimeria species (mainly E. acervulina); conditions: in vivo
[3] = in vivo
[4] = General safety in broilers reared to market weight by histology (Example 8); conditions: histology D42
[5] = NE challenge, IVP 0.1 g/L in-water, groups 7, 8
[6] = NE challenge, IVP 0.20 g/kg in-feed, group 11
[7] = NE challenge, IVP 1.0 g/L in-water, groups 9, 10
[8] = NE challenge, IVP 2.0 g/kg in-feed, group 12
[9] = Necrotic Enteritis, IVP feed 0.2 g/kg, group 11, isolator 9, 11 birds
[10] = Necrotic Enteritis, IVP feed 2 g/kg, group 12, isolator 3, 15 birds
[11] = Necrotic Enteritis, IVP water 0.1 g/L, 'Mean' line of groups 7 and 8, 28 birds
[12] = Necrotic Enteritis, IVP water 0.1 g/L, group 7, isolator 6, 13 birds
[13] = Necrotic Enteritis, IVP water 0.1 g/L, group 8, isolator 11, 15 birds
[14] = Necrotic Enteritis, IVP water 1.0 g/L, 'Mean' line of groups 9 and 10, 25 birds
[15] = Necrotic Enteritis, IVP water 1.0 g/L, group 9, isolator 2, 9 birds
[16] = Necrotic Enteritis, IVP water 1.0 g/L, group 10, isolator 8, 16 birds
[17] = Nil Challenge, IVP water 1.0 g/L, 'Mean' line of groups 3 and 4, 25 birds
[18] = Nil Challenge, IVP water 1.0 g/L, group 3, isolator 10, 10 birds
[19] = Nil Challenge, IVP water 1.0 g/L, group 4, isolator 4, 15 birds
[20] = Nil challenge, IVP 1.0 g/L in-water, groups 3, 4

## COc1ccc2cc3[n+](cc2c1OC)CCc1cc2c(cc1-3)OCO2 [IRP001 chloride, berberine chloride]
[1]; [5]
  Median Duodenal Lesion Score (0 absent to 4 severe): 4
  Median Ilial Lesion Score (0 absent to 4 severe): 4
  Median Jejunal Lesion Score (0 absent to 4 severe): 4
[1]; [6]
  Median Duodenal Lesion Score (0 absent to 4 severe): 4
  Median Ilial Lesion Score (0 absent to 4 severe): 4
  Median Jejunal Lesion Score (0 absent to 4 severe): 4
[1]; [7]
  Median Duodenal Lesion Score (0 absent to 4 severe): 1
  Median Ilial Lesion Score (0 absent to 4 severe): 1
  Median Jejunal Lesion Score (0 absent to 4 severe): 1
[1]; [8]
  Median Duodenal Lesion Score (0 absent to 4 severe): 1
  Median Ilial Lesion Score (0 absent to 4 severe): 1
  Median Jejunal Lesion Score (0 absent to 4 severe): 1
[1]; [9]
  Mortalities prior to autopsy: 9
  Mortality %: 82%
[1]; [10]
  Mortalities prior to autopsy: 2
  Mortality %: 13%
[1]; [11]
  Mortalities prior to autopsy: 22
  Mortality %: 79%
[1]; [12]
  Mortalities prior to autopsy: 12
  Mortality %: 92%
[1]; [13]
  Mortalities prior to autopsy: 10
  Mortality %: 67%
[1]; [14]
  Mortalities prior to autopsy: 0
  Mortality %: 0%
[1]; [15]
  Mortalities prior to autopsy: 0
  Mortality %: 0%
[1]; [16]
  Mortalities prior to autopsy: 0
  Mortality %: 0%
[1]; [17]
  Mortalities prior to autopsy: 0
  Mortality %: 0%
[1]; [18]
  Mortalities prior to autopsy: 0
  Mortality %: 0%
[1]; [19]
  Mortalities prior to autopsy: 0
  Mortality %: 0%
[1]; [20]
  Median Duodenal Lesion Score (0 absent to 4 severe): 0
  Median Ilial Lesion Score (0 absent to 4 severe): 0
  Median Jejunal Lesion Score (0 absent to 4 severe): 0
[2]
  FCR 0-14 corrected for mortality: 1.120 and 1.125 and 1.103
  FCR 0-21 corrected for mortality: 1.285 and 1.256 and 1.250
  FCR 0-28 corrected for mortality: 1.470 and 1.467 and 1.486
  Feed per bird over days 0-14: 485^B g/bird and 513^A g/bird and 512^A g/bird
  Feed per bird over days 0-21: 1186^B g/bird and 1227^AB g/bird and 1240^AB g/bird
  Feed per bird over days 0-28: 1957 g/bird and 2037 g/bird and 2049 g/bird
  Feed per bird over days 0-42: 4121 g/bird and 4247 g/bird and 4305 g/bird
  Mean Weight Gain over days 0-7: 113 gm and 121 gm and 119 gm
  Mean Weight Gain over days 8-14: 320^C gm and 334^A gm and 343^A gm
  Mean Weight Gain over days 15-21: 491^B gm and 517^A gm and 528^A gm
  Mean Weight Gain over days 22-28: 593 gm and 618 gm and 600 gm
  Mean Weight Gain over days 29-42: 1324 gm and 1341 gm and 1436 gm
  Mean live weight at 0 days: 41 gm
  Mean live weight at 7 days: 154 gm and 163 gm and 160 gm
  Mean live weight at 14 days: 432^B gm and 456^A gm and 461^A gm
  Mean live weight at 21 days: 973^C gm and 972^AB gm and 989^A gm
  Mean live weight at 28 days: 1517^B gm and 1590^A gm
  Mean live weight at 42 days: 2840^B gm and 2932^A gm and 3026^A gm
  appearance of bird health: always appeared healthy
  droppings: moist yellow-ish droppings
  early growth rate: significantly lower than all other groups
  growth rate: statistically similar to the control group
  lesion scores in duodenum, jejunum and total gut: highest lesion scores
  reduction of coccidial lesions: not by the lower dose rates
  total intestinal health scores (Tierlynck et al.): approached significance
  translucency score upper intestine and undigested feed particles in rectum: reduced translucency score in the upper intestine and the presence of undigested feed particles in the rectum
[3]
  Cumulative Pathology and Enteritis scores: equal or lower than the control
[4]
  gastrointestinal tract (GIT) histologic lesions: within normal limits
  liver histologic lesions: within normal limits

Source: patent publication US20240306670A1, “BERBERINE ALKALOIDS IN THE PREVENTION AND/OR TREATMENT OF INTESTINAL DISEASE” (priority 2017, published 2024)
